In patent US11779014B2, “Adjuvants” (SYNGENTA PARTICIPATIONS AG, priority 2017, dated 2023):

Legend:
Assay type in all cases: in vivo
Settings in all cases: total surfactant 0.2% w/v, 21 days
[1] = tested on: Brachiaria platyphylla (BRAPL); assay: Glasshouse adjuvancy test for mesotrione on BRAPL
Method: (§1) Mesotrione was added to the spray tank as a standard SC (suspension concentrate) formulation. The plants were sprayed with mesotrione at rates of 30 or 60 grams of pesticide per hectare using a laboratory track sprayer which delivered the aqueous spray composition at a rate of 200 litres per hectare, using a flat fan nozzle (Teejet 11002VS) and an application volume of 200 litre/ha (at 2 bar). The spray solutions also contained the oleyl 20EO alone or in 1:1 blends with the capped surfactants. The adjuvants were added to the spray solution at a total surfactant rate of 0.2% w/v. All spray solutions also contained 10% w/w of iso-propanol. The weed species and their BBCH growth stage at spraying were Brachiaria platyphylla (BRAPL; growth stage 12-13), Commelina benghalensis (COMBE; growth stage 12-14) and Digitaria sanguinalis (DIGSA; growth stage 13). Each spray test was replicated three times. The test plants were then grown in a glasshouse under controlled conditions (24/18° C. day/night; 16 hours light; 65% humidity) and watered twice a day. The efficacy of the herbicide was assessed visually and expressed as a percentage of the leaf area killed. Samples were assessed at a time period of 21 days following application

[2] = tested on: Commelina benghalensis (COMBE); assay: Glasshouse adjuvancy test for mesotrione on COMBE
Method: as §1

[3] = tested on: Digitaria sanguinalis (DIGSA); assay: Glasshouse adjuvancy test for mesotrione on DIGSA
Method: as §1

[4] = tested on: Chenopodium album (CHEAL); assay: Glasshouse adjuvancy test for fomesafen (sodium salt) on CHEAL
Method: Fomesafen sodium salt was added to the spray tank as a standard SL (soluble concentrate) formulation. The plants were sprayed with fomesafen (sodium salt) at rates of 100 or 200 grams of sodium fomesafen per hectare using a laboratory track sprayer which delivered the aqueous spray composition at a rate of 200 litres per hectare, using a flat fan nozzle (Teejet 11002VS) at 2 bar. The spray solutions also contained the oleyl 20EO alone or in the 1:1 blends with the capped surfactants. The adjuvants were added to the spray solution at a total surfactant rate of 0.2% w/v. All spray solutions also contained 10% w/w of iso-propanol. The weed specie and its BBCH growth stage at spraying was Chenopodium album (CHEAL; growth stage 15). Each spray test was replicated three times. The test plants were then grown in a glasshouse under controlled conditions (24/18° C. day/night; 16 hours light; 65% humidity) and watered twice a day. The efficacy of the herbicide was assessed visually and expressed as a percentage of the leaf area killed. Samples were assessed at a time period of 21 days following application.

Avena fatua (AVEFA) = assay: Glasshouse adjuvancy test for pinoxaden on AVEFA
Method: The efficacy of 1:1 blends of oleyl 20EO with oleyl 20EO with either n-hexanoyl, n-octanoyl or 2-ethyl hexanoyl ester caps as adjuvants for the herbicide pinoxaden was tested in a glasshouse against two weed species, sown into standard soil in pots and cultivated under controlled conditions in a glasshouse (20/16° C. day/night; 16 hours light; 65% humidity). Pinoxaden was added to the spray tank as a standard EC (emulsifiable concentrate) formulation. The plants were sprayed with pinoxaden at rates of 7.5 or 15 grams of pesticide per hectare using a laboratory track sprayer which delivered the aqueous spray composition at a rate of 200 litres per hectare, using a flat fan nozzle (Teejet 11002VS) at 2 bar. The spray solutions also contained the oleyl 20EO alone or in the 1:1 blends with the capped surfactants. The adjuvants were added to the spray solution at a total surfactant rate of 0.2% w/v. All spray solutions also contained 10% w/w of iso-propanol. The weed species and their BBCH growth stage at spraying were Avena fatua (AVEFA; growth stage 13) and Setaria viridis (SETVI; growth stage 13). Each spray test was replicated three times. The test plants were then grown in a glasshouse under controlled conditions (20/16° C. day/night; 16 hours light; 65% humidity) and watered twice a day. The efficacy of the herbicide was assessed visually and expressed as a percentage of the leaf area killed. Samples were assessed at a time period of 21 days following application.
Dodecyl 23EO and hexadecyl 20EO were capped with an n-hexyl ether cap. The efficacy of 1:1 blends of these with their uncapped counterparts were tested as adjuvants for the herbicide pinoxaden was tested in a glasshouse against two weed species, sown into standard soil in pots and cultivated under controlled conditions in a glasshouse (20/16° C. day/night; 16 hours light; 65% humidity). Pinoxaden was added to the spray tank as a standard EC (emulsifiable concentrate) formulation. The plants were sprayed with pinoxaden at a.i. rates of 7.5 or 15 grams per hectare using a laboratory track sprayer which delivered the aqueous spray composition at a rate of 200 litres per hectare, using a flat fan nozzle (Teejet 11002VS) at 2 bar. The spray solutions tested included the capped and uncapped alone or in the 1:1 blends with the capped surfactants. The adjuvants were added to the spray solution at a total surfactant rate of 0.2% w/v. All spray solutions also contained 10% w/w of iso-propanol. The weed species and their BBCH growth stage at spraying was Avena fatua (AVEFA; growth stage 12). Each spray test was replicated three times. The test plants were then grown in a glasshouse under controlled conditions (20/16° C. day/night; 16 hours light; 65% humidity) and watered twice a day. The efficacy of the herbicide was assessed visually and expressed as a percentage of the leaf area killed. Samples were assessed at a time period of 21 days following application.
Oleyl 20EO was capped with -butyl, n-pentyl and n-benzyl caps. The efficacy of 1:1 blends of these with their uncapped counterparts were tested as adjuvants for the herbicide pinoxaden was tested in a glasshouse against two weed species, sown into standard soil in pots and cultivated under controlled conditions in a glasshouse (20/16° C. day/night; 16 hours light; 65% humidity). Pinoxaden was added to the spray tank as a standard EC (emulsifiable concentrate) formulation. The plants were sprayed with pinoxaden at a.i. rates of 7.5 or 15 grams per hectare using a laboratory track sprayer which delivered the aqueous spray composition at a rate of 200 litres per hectare, using a flat fan nozzle (Teejet 11002VS) at 2 bar. The spray solutions tested included the capped and uncapped alone or in the 1:1 blends with the capped surfactants. The adjuvants were added to the spray solution at a total surfactant rate of 0.2% w/v. All spray solutions also contained 10% w/w of iso-propanol.

How did the Mean control ([1]; mesotrione 30 g ai/ha) turn out when `CCCCCCCC/C=C\CCCCCCCCOCCOCCOCCOCCOCCOCCOCCOCCOCCOCCOCCOCCOCCOCCOCCOCCOCCOCCOCCOCCO` [Oleyl 20EO, oleyl 20 ethoxylate] was run?
Its Mean control is 56.7%.

What about the Mean control ([1]; mesotrione 60 g ai/ha) of the same compound?
Its Mean control is 71.7%.

What about the Mean control ([2]; mesotrione 30 g ai/ha) of the same compound?
The Mean control was 66.7%.

What about the Mean control ([2]; mesotrione 60 g ai/ha) of the same compound?
The Mean control was 76.7%.

What about the Mean control ([3]; mesotrione 30 g ai/ha) of the same compound?
The Mean control was 68.3%.

What about the Mean control ([3]; mesotrione 60 g ai/ha) of the same compound?
The Mean control was 75.0%.

And the Mean control ([4]; fomesafen (sodium salt) 100 g ai/ha)?
Its Mean control is 68.3%.

And the Mean control ([4]; fomesafen (sodium salt) 200 g ai/ha)?
The Mean control was 68.3%.

And the Mean control (Avena fatua (AVEFA); pinoxaden 7.5 g ai/ha, Example 4)?
The Mean control was 65.0%.

What about the Mean control (Avena fatua (AVEFA); pinoxaden 15 g ai/ha, Example 4) of the same compound?
Its Mean control is 86.7%.

And the Mean control (Avena fatua (AVEFA); pinoxaden 15 g ai/ha, Example 9, growth stage 12)?
The Mean control was 92.7%.
